Measurements from patent publication US6914045B2, “Glycopeptide antibiotics” (Wyeth Holdings Corporation, priority 2001, dated 2005).
≈ marks a conversion by molar mass, not a printed value.

What was measured:
Enterococcus sp. = experiment: in vitro antibacterial evaluation, MIC by broth dilution; type: cell-based; conditions: broth dilution, 18 hours at 35° C.
Method in brief: (§1)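 Step 1: dilute antibiotic across 64-0.06 μg/mL in Muller-Hinton II […]. Step 2: inoculate at 5×10^5 CFU/mL.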

Staphylococcus sp. = experiment: as above; type: cell-based; conditions: broth dilution, 18 hours at 35° C.
Method in brief: as §1

Streptococcus sp. = experiment: as above; type: cell-based; conditions: broth dilution, 18 hours at 35° C.
Method in brief: as §1

[1] = system: Staphylococcus aureus-SMITH (GC 4543); experiment: acute lethal infection in mice; type: in vivo; conditions: acute lethal infection, female CD-1 mice, intraperitoneal challenge, intravenous 30 min. after infection, 7 day survival
Method in brief: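 Intraperitoneal challenge of female CD-1 mice with a bacterial dose lethal to untreated animals within 24-48 hr; single iv treatment 30 min later, 5 mice per dose level. Survival is scored at day 7 and pooled from three experiments to give the median effective dose.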

Escherichia coli = experiment: in vitro antibacterial evaluation, MIC by broth dilution; type: cell-based; conditions: 18 hours at 35° C.

CC(c1ccccc1)C1NC(=O)CNC(=O)C(CO)NC(=O)C(C(O)C2CNC(=N)N2C2OC(CO)C(O)C(O)C2O)NC(=O)C(C(O)C2CNC(=N)N2)NC(=O)C(Cc2ccc(OC3OC(CO)C(OC4OC(COCc5ccc(OCc6ccccc6)cc5)C(O)C(O)C4O)C(O)C3O)cc2)NC1=O (stereo not drawn) [Example 231, Cyclo[glycyl-β-methylphenylalanyl-O-[4-O-[6-O-[4-(phenylmethoxy)benzyl]hexopyranosyl]-hexopyranosyl]tyrosyl-3-(2-iminoimidazolidin-4-yl)seryl-3-(3-hexopyranosyl-2-iminoimidazolidin-4-yl)serylseryl]]
MIC Enterococcus avium (GC 4558) (Enterococcus sp.): 2 to 4 µg/mL
MIC Enterococcus faecalis (ATCC 29212) (Enterococcus sp.): 4 µg/mL (≈ 2.68 µM)
MIC Enterococcus faecalis (GC 2242) (Enterococcus sp.): 4 µg/mL (≈ 2.68 µM)
MIC Enterococcus faecalis (GC 2691) (Enterococcus sp.): 2 to 4 µg/mL
MIC Enterococcus faecalis (GC 3059) (Enterococcus sp.): 2 to 4 µg/mL
MIC Enterococcus faecalis (GC 4552) (Enterococcus sp.): 4 µg/mL (≈ 2.68 µM)
MIC Enterococcus faecalis (GC 4553) (Enterococcus sp.): 4 µg/mL (≈ 2.68 µM)
MIC Enterococcus faecalis (GC 4554) (Enterococcus sp.): 4 µg/mL (≈ 2.68 µM)
MIC Enterococcus faecalis (GC 6189) (Enterococcus sp.): 2 to 4 µg/mL
MIC Enterococcus faecium (GC 2243) (Enterococcus sp.): 4 µg/mL (≈ 2.68 µM)
MIC Enterococcus faecium (GC 4556) (Enterococcus sp.): 4 µg/mL (≈ 2.68 µM)
MIC Enterococcus faecium (GC 4557) (Enterococcus sp.): 1 to 2 µg/mL
MIC Enterococcus faecalis (ATCC 29212) (Enterococcus sp.; inoculum 5×10^5 CFU/mL, strain ATCC 29212): 4 µg/mL (≈ 2.68 µM)
MIC Enterococcus faecalis (GC 2242) (Enterococcus sp.; inoculum 5×10^5 CFU/mL, strain GC 2242): 4 µg/mL (≈ 2.68 µM)
MIC Enterococcus faecium (GC 2243) (Enterococcus sp.; inoculum 5×10^5 CFU/mL, strain GC 2243): 4 µg/mL (≈ 2.68 µM)
MIC Enterococcus faecalis (GC 2691) (Enterococcus sp.; inoculum 5×10^5 CFU/mL, strain GC 2691): 2 to 4 µg/mL
MIC Enterococcus faecalis (GC 3059) (Enterococcus sp.; inoculum 5×10^5 CFU/mL, strain GC 3059): 2 to 4 µg/mL
MIC Enterococcus faecalis (GC 4552) (Enterococcus sp.; inoculum 5×10^5 CFU/mL, strain GC 4552): 4 µg/mL (≈ 2.68 µM)
MIC Enterococcus faecalis (GC 4553) (Enterococcus sp.; inoculum 5×10^5 CFU/mL, strain GC 4553): 4 µg/mL (≈ 2.68 µM)
MIC Enterococcus faecalis (GC 4554) (Enterococcus sp.; inoculum 5×10^5 CFU/mL, strain GC 4554): 4 µg/mL (≈ 2.68 µM)
MIC Enterococcus faecium (GC 4556) (Enterococcus sp.; inoculum 5×10^5 CFU/mL, strain GC 4556): 4 µg/mL (≈ 2.68 µM)
MIC Enterococcus faecium (GC 4557) (Enterococcus sp.; inoculum 5×10^5 CFU/mL, strain GC 4557): 1 to 2 µg/mL
MIC Enterococcus avium (GC 4558) (Enterococcus sp.; inoculum 5×10^5 CFU/mL, strain GC 4558): 2 to 4 µg/mL
MIC Enterococcus faecalis (GC 6189) (Enterococcus sp.; inoculum 5×10^5 CFU/mL, strain GC 6189): 2 to 4 µg/mL
MIC Coagulase Negative Staphylococcus (GC 4547) (Staphylococcus sp.): 1 to 2 µg/mL
MIC Coagulase Negative Staphylococcus (GC 4548) (Staphylococcus sp.): 0.5 to 1 µg/mL
MIC Coagulase Negative Staphylococcus (GC 4549) (Staphylococcus sp.): 0.25 to 0.5 µg/mL
MIC Coagulase Negative Staphylococcus (GC 4551) (Staphylococcus sp.): 1 µg/mL (≈ 0.67 µM)
MIC Coagulase Negative Staphylococcus (GC 6257) (Staphylococcus sp.): 0.5 to 1 µg/mL
MIC Staphylococcus aureus (ATCC 29213) (Staphylococcus sp.): 1 to 4 µg/mL
MIC Staphylococcus aureus (GC 1131) (Staphylococcus sp.): 2 to 4 µg/mL
MIC Staphylococcus aureus (GC 3051) (Staphylococcus sp.): 1 to 2 µg/mL
MIC Staphylococcus aureus (GC 3053) (Staphylococcus sp.): 1 to 2 µg/mL
MIC Staphylococcus aureus (GC 4541) (Staphylococcus sp.): 1 to 4 µg/mL
MIC Staphylococcus aureus (GC 4542) (Staphylococcus sp.): 2 to 4 µg/mL
MIC Staphylococcus aureus (GC 4544) (Staphylococcus sp.): 2 to 4 µg/mL
MIC Staphylococcus aureus (GC 4545) (Staphylococcus sp.): 1 to 4 µg/mL
MIC Staphylococcus aureus-SMITH (GC 4543) (Staphylococcus sp.): 2 µg/mL (≈ 1.34 µM)
MIC Staphylococcus haemolyticus (GC 4546) (Staphylococcus sp.): 1 to 4 µg/mL
MIC Staphylococcus aureus (ATCC 29213) (Staphylococcus sp.; strain ATCC 29213): 1 to 4 µg/mL
MIC Staphylococcus aureus (GC 1131) (Staphylococcus sp.; strain GC 1131): 2 to 4 µg/mL
MIC Staphylococcus aureus (GC 3051) (Staphylococcus sp.; strain GC 3051): 1 to 2 µg/mL
MIC Staphylococcus aureus (GC 3053) (Staphylococcus sp.; strain GC 3053): 1 to 2 µg/mL
MIC Staphylococcus aureus (GC 4541) (Staphylococcus sp.; strain GC 4541): 1 to 4 µg/mL
MIC Staphylococcus aureus (GC 4542) (Staphylococcus sp.; strain GC 4542): 2 to 4 µg/mL
MIC Staphylococcus aureus-SMITH (GC 4543) (Staphylococcus sp.; strain GC 4543): 2 µg/mL (≈ 1.34 µM)
MIC Staphylococcus aureus (GC 4544) (Staphylococcus sp.; strain GC 4544): 2 to 4 µg/mL
MIC Staphylococcus aureus (GC 4545) (Staphylococcus sp.; strain GC 4545): 1 to 4 µg/mL
MIC Staphylococcus haemolyticus (GC 4546) (Staphylococcus sp.; strain GC 4546): 1 to 4 µg/mL
MIC Coagulase Negative Staphylococcus (GC 4547) (Staphylococcus sp.; strain GC 4547): 1 to 2 µg/mL
MIC Coagulase Negative Staphylococcus (GC 4548) (Staphylococcus sp.; strain GC 4548): 0.5 to 1 µg/mL
MIC Coagulase Negative Staphylococcus (GC 4549) (Staphylococcus sp.; strain GC 4549): 0.25 to 0.5 µg/mL
MIC Coagulase Negative Staphylococcus (GC 4551) (Staphylococcus sp.; strain GC 4551): 1 µg/mL (≈ 0.67 µM)
MIC Coagulase Negative Staphylococcus (GC 6257) (Staphylococcus sp.; strain GC 6257): 0.5 to 1 µg/mL
MIC Streptococcus agalactiae (GC 4564) (Streptococcus sp.): <0.06 µg/mL
MIC Streptococcus pneumoniae (ATCC 6301) (Streptococcus sp.): <0.06 µg/mL
MIC Streptococcus pneumoniae (GC 1894) (Streptococcus sp.): <0.06 µg/mL
MIC Streptococcus pneumoniae (GC 4565) (Streptococcus sp.): <0.06 µg/mL
MIC Streptococcus pyogenes (GC 4563) (Streptococcus sp.): <0.06 µg/mL
MIC Streptococcus pneumoniae (ATCC 6301) (Streptococcus sp.; inoculum 5×10^5 CFU/mL, strain ATCC 6301): <0.06 µg/mL
MIC Streptococcus pneumoniae (GC 1894) (Streptococcus sp.; inoculum 5×10^5 CFU/mL, strain GC 1894): <0.06 µg/mL
MIC Streptococcus pyogenes (GC 4563) (Streptococcus sp.; inoculum 5×10^5 CFU/mL, strain GC 4563): <0.06 µg/mL
MIC Streptococcus agalactiae (GC 4564) (Streptococcus sp.; inoculum 5×10^5 CFU/mL, strain GC 4564): <0.06 µg/mL
MIC Streptococcus pneumoniae (GC 4565) (Streptococcus sp.; inoculum 5×10^5 CFU/mL, strain GC 4565): <0.06 µg/mL
median effective dose (ED50), Staphylococcus aureus-SMITH (GC 4543) [1]: 0.25 mg/kg
MIC Escherichia coli (ATCC 25922) (Escherichia coli): >128 µg/mL
MIC Escherichia coli (GC 4559) (Escherichia coli): >128 µg/mL
MIC Escherichia coli (GC 4560) (Escherichia coli): 0.5 to 2 µg/mL
